Consider 13 compounds from ChEMBL document CHEMBL4699440, “Comprehensive review on the anti-bacterial activity of 1,2,3-triazole hybrids” (Eur J Med Chem, 2019).

Structures are written as SMILES. ≈ marks a conversion by molar mass, not a printed value. A value given as a limit tells only on which side of the number the result lay.

Type in all cases: functional
In assay [1] the test system is Staphylococcus aureus. The assay is described as follows: Antibacterial activity against Staphylococcus aureus CIP 6525 after overnight incubation by CLSI M7-A9 based method.
Assay [2] has as its system Escherichia coli. Description: Antibacterial activity against Escherichia coli JM109 after overnight incubation by CLSI M7-A9 based method.
Assay [3] relates to Escherichia coli. The assay is described as follows: Antibacterial activity against Escherichia coli ATCC 25922 after overnight incubation by CLSI M7-A9 based method.
Assay [4] concerns Enterococcus faecalis. The assay is described as follows: Antibacterial activity against Enterococcus faecalis ATCC 29212 after overnight incubation by CLSI M7-A9 based method.
Assay [5] deals with Escherichia coli. Description: Antibacterial activity against Escherichia coli ATCC 25922 incubated for 24 hrs by microdilution method.
The subject of a further assay is Bacillus cereus. The assay is described as follows: Antibacterial activity against Bacillus cereus ATCC 10876 incubated for 24 hrs by microdilution method. Background: Dilution methods test growth across graded concentrations, often in twofold steps.
In assay [6] the test system is Pseudomonas aeruginosa. Description: Antibacterial activity against Pseudomonas aeruginosa ATCC 27853 incubated for 24 hrs by microdilution method.
The test system of the next assay is Proteus mirabilis. The assay is described as follows: Antibacterial activity against Proteus mirabilis ATCC 35659 incubated for 24 hrs by microdilution method.
In a further assay the test system is Candida albicans. Description: Antifungal activity against Candida albicans ATCC 50193 incubated for 24 hrs by microdilution method.
The test system of assay [7] is Enterococcus faecalis. The assay is described as follows: Antibacterial activity against Enterococcus faecalis ATCC 29212 incubated for 24 hrs by microdilution method.
The next assay deals with Aspergillus brasiliensis. The assay is described as follows: Antifungal activity against Aspergillus brasiliensis ATCC 16404 incubated for 24 hrs by microdilution method.
For assay [8], the system named is Staphylococcus aureus. The assay is described as follows: Antibacterial activity against Staphylococcus aureus ATCC 25923 incubated for 24 hrs by microdilution method.
The test system of assay [9] is Pseudomonas aeruginosa. The assay is described as follows: Antibacterial activity against Pseudomonas aeruginosa 12 incubated for 20 hrs by agar dilution method.
Assay [10] concerns Staphylococcus aureus. The assay is described as follows: Antibacterial activity against Staphylococcus aureus 209P JC1 incubated for 20 hrs by agar dilution method. Background: In agar dilution the substance is mixed into plates at graded concentrations.
Assay [11] has as its system Escherichia coli. Description: Antibacterial activity against Escherichia coli NIHJ JC2 incubated for 20 hrs by agar dilution method.
In a further assay the test system is Streptococcus pneumoniae. The assay is described as follows: Antibacterial activity against Streptococcus pneumoniae RCMB 010010 by broth dilution method.
A further assay relates to Bacillus subtilis. Description: Antibacterial activity against Bacillus subtilis RCMB 010067 by broth dilution method.
The subject of assay [12] is Escherichia coli. The assay is described as follows: Antibacterial activity against Escherichia coli RCMB 010052 by broth dilution method.
A further assay has as its system Klebsiella pneumoniae. Description: Antibacterial activity against Klebsiella pneumonia RCMB 010058 by broth dilution method.
Assay [13] relates to Staphylococcus aureus. Description: Antibacterial activity against Staphylococcus aureus RCMB 010025 by broth dilution method.
The test system of assay [14] is Pseudomonas aeruginosa. The assay is described as follows: Antibacterial activity against Pseudomonas aeruginosa RCMB 010043 by broth dilution method.

For orientation: MIC means the least concentration at which growth counts as inhibited. Lower therefore signals greater potency. Turning to `C[C@H](c1ccccc1)N(CC(N)=O)C(=O)CN(C(=O)CN(Cc1cn(CCN)n[n+]1C)C(=O)CN(C(=O)CN(C(=O)CN(Cc1cn(CCN)n[n+]1C)C(=O)CN(C(=O)CN(C(=O)CN(Cc1cn(CCN)n[n+]1C)C(=O)CN(C(=O)CN(C(=O)CNCc1cn(CCN)n[n+]1C)[C@H](C)c1ccccc1)[C@H](C)c1ccccc1)[C@H](C)c1ccccc1)[C@H](C)c1ccccc1)[C@H](C)c1ccccc1)[C@H](C)c1ccccc1)[C@H](C)c1ccccc1`, the minimum inhibitory concentration (MIC) against Staphylococcus aureus [1], in the assay with Escherichia coli [2], in the assay with Escherichia coli [3] and against Enterococcus faecalis [4] was above 1.6 µg/mL throughout.
For the compound `C[C@H](c1ccccc1)N(CC(N)=O)C(=O)CN(C(=O)CN(Cc1cn(Cc2ccccc2)n[n+]1C)C(=O)CN(C(=O)CN(C(=O)CN(Cc1cn(Cc2ccccc2)n[n+]1C)C(=O)CN(C(=O)CN(C(=O)CNCc1cn(Cc2ccccc2)n[n+]1C)[C@H](C)c1ccccc1)[C@H](C)c1ccccc1)[C@H](C)c1ccccc1)[C@H](C)c1ccccc1)[C@H](C)c1ccccc1`, the MIC against Staphylococcus aureus [1], in the assay with Escherichia coli [2], against Escherichia coli [3] and in the assay with Enterococcus faecalis [4] was above 1.6 µg/mL in each case.
Turning to `CCCCCCCCn1nnc(-c2n[nH]c(=S)n2N)c1-c1n[nH]c(=S)n1N`, the MIC against Escherichia coli [5], against Bacillus cereus, with Pseudomonas aeruginosa [6], against Proteus mirabilis, with Candida albicans and against Enterococcus faecalis [7] was 1 µg/mL (≈ 2.44 µM) throughout. Also, the MIC in the assay with Aspergillus brasiliensis and with Staphylococcus aureus [8] was 1 µg/mL (≈ 2.44 µM) each time.
`CCCCCCCCCCCCn1nnc(-c2n[nH]c(=S)n2N)c1-c1n[nH]c(=S)n1N`: the MIC in the assay on Escherichia coli [5], in the assay with Bacillus cereus, in the assay with Pseudomonas aeruginosa [6], with Proteus mirabilis, in the assay with Candida albicans and against Enterococcus faecalis [7] was 1 µg/mL (≈ 2.15 µM) in each case. For the same compound, the MIC in the assay on Aspergillus brasiliensis and against Staphylococcus aureus [8] was 1 µg/mL (≈ 2.15 µM) each time.
For the compound `CCCCCCCCn1nnc(-c2n[nH]c(=S)n2-c2ccccc2)c1-c1n[nH]c(=S)n1-c1ccccc1`, the MIC against Escherichia coli [5], against Bacillus cereus, against Pseudomonas aeruginosa [6], in the assay with Proteus mirabilis, in the assay with Candida albicans and in the assay with Enterococcus faecalis [7] was 2 µg/mL (≈ 3.76 µM) throughout. Further, the MIC against Aspergillus brasiliensis and with Staphylococcus aureus [8] was 2 µg/mL (≈ 3.76 µM) in each case.
Regarding `CCCCCCCCCCCCn1nnc(-c2n[nH]c(=S)n2-c2ccccc2)c1-c1n[nH]c(=S)n1-c1ccccc1`, the minimal inhibitory concentration (MIC) against Escherichia coli [5], with Bacillus cereus, with Pseudomonas aeruginosa [6], against Proteus mirabilis, against Candida albicans and with Enterococcus faecalis [7] was 2 µg/mL (≈ 3.4 µM) in each case. For the same compound, the MIC with Aspergillus brasiliensis and against Staphylococcus aureus [8] was 2 µg/mL (≈ 3.4 µM) each time.
In the case of `NC1CCN(c2c(Cl)c3c(c(=O)c(C(=O)O)cn3C3CC3)c3[nH]nnc23)C1` (stereo not drawn), the MIC against Pseudomonas aeruginosa [9], against Staphylococcus aureus [10] and against Escherichia coli [11] was 0.05 µg/mL (≈ 0.129 µM) throughout.
Regarding `CCCCCCCCCCCCCCn1nnc(-c2n[nH]c(=S)n2-c2ccccc2)c1-c1n[nH]c(=S)n1-c1ccccc1`, the MIC against Escherichia coli [5], in the assay on Bacillus cereus, with Pseudomonas aeruginosa [6], against Proteus mirabilis, with Candida albicans and in the assay on Enterococcus faecalis [7] was 2 µg/mL (≈ 3.25 µM) throughout. Also, the MIC in the assay with Aspergillus brasiliensis and against Staphylococcus aureus [8] was 2 µg/mL (≈ 3.25 µM) each time.
For the compound `C[C@H](c1ccccc1)N(CC(N)=O)C(=O)CN(C(=O)CN(Cc1cn(CCN)nn1)C(=O)CN(C(=O)CN(C(=O)CN(Cc1cn(CCN)nn1)C(=O)CN(C(=O)CN(C(=O)CN(Cc1cn(CCN)nn1)C(=O)CN(C(=O)CN(C(=O)CNCc1cn(CCN)nn1)[C@H](C)c1ccccc1)[C@H](C)c1ccccc1)[C@H](C)c1ccccc1)[C@H](C)c1ccccc1)[C@H](C)c1ccccc1)[C@H](C)c1ccccc1)[C@H](C)c1ccccc1`, the MIC against Staphylococcus aureus [1], against Escherichia coli [2], against Escherichia coli [3] and against Enterococcus faecalis [4] was above 1.6 µg/mL throughout.
On to `CC(=O)OCCCSc1nnc(-c2nnn(-c3ccccc3Cl)c2-c2nnc(SCCCOC(C)=O)o2)o1`, for which the MIC in the assay on Streptococcus pneumoniae, with Bacillus subtilis, against Escherichia coli [12], with Klebsiella pneumoniae, against Staphylococcus aureus [13] and against Pseudomonas aeruginosa [14] was 31.2 µg/mL (≈ 53.9 µM) throughout.
Consider `CC(=O)OCCSc1nnc(-c2nnn(-c3ccccc3Cl)c2-c2nnc(SCCOC(C)=O)o2)o1`, for which the MIC in the assay on Streptococcus pneumoniae, in the assay with Bacillus subtilis, against Escherichia coli [12], against Klebsiella pneumoniae, with Staphylococcus aureus [13] and against Pseudomonas aeruginosa [14] was 31.2 µg/mL (≈ 56.6 µM) throughout.
Turning to `CC1CCN(c2c(Cl)c3c(c(=O)c(C(=O)O)cn3C3CC3)c3[nH]nnc23)CC1`, the MIC in the assay with Pseudomonas aeruginosa [9], with Staphylococcus aureus [10] and with Escherichia coli [11] was 0.05 µg/mL (≈ 0.124 µM) in each case.
With `CCCCCCCCCCn1nnc(-c2n[nH]c(=S)n2-c2ccccc2)c1-c1n[nH]c(=S)n1-c1ccccc1`, the MIC against Escherichia coli [5], against Bacillus cereus, against Pseudomonas aeruginosa [6], in the assay with Proteus mirabilis, against Candida albicans and in the assay with Enterococcus faecalis [7] was 2 µg/mL (≈ 3.57 µM) in each case. Moreover, the MIC against Aspergillus brasiliensis and in the assay with Staphylococcus aureus [8] was 2 µg/mL (≈ 3.57 µM) throughout.
